Reference: patent US8013163B2 (Astex Therapeutics Limited, priority 2005, dated 2011)
Counter-ions that a name gives are not always drawn.

Assays:
[1] = tested on: malignant cells from B-cell chronic lymphocytic leukemia (B-CLL); conditions: in vitro; cited from earlier work
[2] = Solubility of the mesylate salt in aqueous solution at pH 1 to 11 (UV-Vis assay); assay type: physicochemical
Description: Solutions were prepared by titrating standard hydrochloric acid with dilute sodium hydroxide solution to a desired pH. […] These solutions were then used to assess the solubility of 4-(2,6-dichlorobenzoylamino)-1/i-pyrazole-3-carboxylic acid piperidin-4-ylamide methanesulphonate.
In each experiment, 150 mg of the methanesulphonate salt was weighed into a 5 ml clear vial and 3-4 ml of a solution of a given pH was added. […] In each case, the solution was then filtered through a 0.22 μm PVDF filter, the pH of the clear solution obtained was recorded, and the solution was assayed for methanesulphonate salt content using a UV-Vis spectrophotometer and standard solutions of the salt.

[3] = Solubility of the mesylate salt in buffered solutions (HPLC assay); assay type: physicochemical; conditions: acetate buffer, pH 4.6, aqueous buffer, thermodynamic from solid
Description: An investigation into the solubility of the mesylate salt of Example 1 in various buffering systems was carried out at ambient temperature and at 4° C. In a first set of experiments, the buffers selected were 200 mM succinate pH 5.5, citrate pH 5.5, and Tris/maleate pH 5.5, 6.5 and 7.5. A second set of buffers utilised included a 200 mM acetate pH 4.6, glycine/methanesulphonic acid pH 4.6 and glycine pH 5.5.
This buffer was prepared by dissolving 4.44 g sodium acetate in 200 ml water. A volume (50 ml) of this solution was titrated with 0.20 M acetic acid solution ([…] in 200 ml water) and made up to 200 ml with water. A 0.20 M acetate buffer solution of pH 4.6 was prepared.
With each pH and buffer system, two experiments were performed, one at ambient temperature and one at 4° C. In each experiment, to 4.0 ml buffer solution was added a nominal 220 mg of the mesylate salt and the solution mixture was stirred. The stirring was stopped after 3 hours, the solution filtered through a PVDF 0.22 μm membrane filter, diluted in sample diluent and assayed for mesylate salt content by HPLC. Throughout the experiments, the mesylate salt content of each sample was calculated using single point calibration each time.

[4] = Stability of acetate buffered salt solution (autoclaving, heating, freeze-thaw); assay type: physicochemical
Description: Autoclaving at 121° C. for 15 minutes, followed by heating the solution further at 40° C., 55° C. or 75° C. for 10-12 days, were carried out on the acetate buffered salt solution.

[5] = Stability trial of methanesulphonate salt at 40° C./75% relative humidity for six months; assay type: physicochemical
Description: Samples of the methanesulphonate salt of Example 1 were stored in sealed bags inside a sealed container at a temperature of 40° C. and in an atmosphere of 75% relative humidity for a period of six months. At periods of 1 month, 3 months and 6 months, various tests were carried out to determine whether any changes to the purity or physical state of the salt had occurred. The tests were as follows:
(a) Visual examination of the colour and physical appearance of the salt.
(b) Fourier Transform Infra Red (FTIR) spectroscopy—comparison with reference standard spectrum.
(c) Determination of melting point by differential scanning calorimetry (DSC).
(d) Determination of water content by a coulometric method using the coulometric reagent AKX.
(e) Analysis of impurities by HPLC.

[6] = Gravimetric Vapour Sorption (GVS) study; assay type: physicochemical
Description: (i) Gravimetric Vapour Sorption (GVS) studies were carried out to investigate the behaviour of the mesylate salt in conditions of varying humidity. The mesylate salt used in the studies was prepared from the hydrochloride salt (see Example 11) by the following method.
Samples of the mesylate salt produced by the method described above were run on a Hiden IGASorp moisture sorption analyser running CFRSorp software. The sample sizes were typically 10 mg. Moisture adsorption-desorption isotherms were performed as set out in the following table:
A double cycle was run using a sample of 12.92 mg of the mesylate salt. […] However, provided that the salt is not exposed to relative humidities of more than 80%, the water uptake is less than 2.6% w/w. Importantly, water which was taken up during the adsorption stage was lost during the desorption state indicating the uptake of water is a surface effect.

[7] = Exposure at 40° C./approximately 75% relative humidity with XRPD and HPLC analysis; assay type: physicochemical; conditions: approximately 75% relative humidity
Description: (ii) In a separate test, approximately 10 mg of the mesylate salt as prepared above was pressed flat onto a glass slide to achieve a high surface area and placed in a dessicator containing a saturated aqueous solution of sodium chloride. This in turn was placed in an incubator held at 40° C. to provide an atmosphere of approximately 75% relative humidity. The sample was removed on 8 and 18 days and the XRPD profiles of the sample at these times were compared to the XRPD profile of the salt prior to commencement of the test.

HCT-1 16 cells = test: Anti-proliferative activity (Alamar Blue assay); assay type: cell-based; conditions: Homo sapiens, HCT-116, 72 hours
Description: The anti-proliferative activities of a compound can be determined by measuring the ability of the compound to inhibition of cell growth in a number of cell lines. Inhibition of cell growth is measured using the Alamar Blue assay (Nociari, M. M, Shalev, A., Benias, P., Russo, C. Journal of Immunological Methods 1998, 213, 157-167). The method is based on the ability of viable cells to reduce resazurin to its fluorescent product resorufin. For each proliferation assay cells are plated onto 96 well plates and allowed to recover for 16 hours prior to the addition of inhibitor compounds for a further 72 hours. At the end of the incubation period 10% (v/v) Alamar Blue is added and incubated for a further 6 hours prior to determination of fluorescent product at […]. In the case of the non-proliferating cell assay cells are maintained at confluence for 96 hour prior to the addition of inhibitor compounds for a further 72 hours. The number of viable cells is determined by Alamar Blue assay as before. Cell lines can be obtained from the ECACC (European Collection of cell Cultures).

[8] = 40° C./75% relative humidity, t = 0
[9] = 40° C./75% relative humidity, t = 1 month
[10] = 40° C./75% relative humidity, t = 3 months
[11] = 40° C./75% relative humidity, t = 6 months

CC[C@H](CO)Nc1nc(NCc2ccccc2)c2ncn(C(C)C)c2n1 [CYC 202]
induction of apoptosis [1]: induce in vitro apoptosis

CN1CC[C@H](c2c(O)cc(O)c3c(=O)cc(-c4ccccc4Cl)oc23)[C@H](O)C1 [Flavopiridol]
induction of apoptosis [1]: induce in vitro apoptosis

O=C(NC1CCNCC1)c1n[nH]cc1NC(=O)c1c(Cl)cccc1Cl [mesylate salt, 4-(2,6-dichlorobenzoylamino)-1H-pyrazole-3-carboxylic acid piperidin-4-ylamide methanesulphonate]
solubility at 3 h ([2]; aqueous solution, 4 °C, pH 0.26, simulated gastric fluid, thermodynamic from solid, initial pH 0.26, final pH 0.26): 9.85 mg/mL | solubility at 3 h ([2]; aqueous solution, 4 °C, pH 1, simulated gastric fluid, thermodynamic from solid, initial pH 1.00, final pH 1.00): 39.4 mg/mL | solubility at 3 h ([2]; aqueous solution, 4 °C, pH 2.51, aqueous buffer, thermodynamic from solid, initial pH 2.51, final pH 2.51): 41.5 mg/mL | solubility at 3 h ([2]; aqueous solution, 4 °C, pH 4.99, aqueous buffer, thermodynamic from solid, initial pH 4.99, final pH 4.99): 42.4 mg/mL | solubility at 3 h ([2]; aqueous solution, 4 °C, pH 7.34, aqueous buffer, thermodynamic from solid, initial pH 7.34, final pH 7.34): 45.9 mg/mL | solubility at 3 h ([2]; aqueous solution, 4 °C, pH 7.4, aqueous buffer, thermodynamic from solid, initial pH 9.04, final pH 7.40): 30.4 mg/mL | solubility at 3 h ([2]; aqueous solution, 4 °C, pH 7.69, aqueous buffer, thermodynamic from solid, initial pH 7.69, final pH 7.69): 37.9 mg/mL | solubility at 3 h ([2]; aqueous solution, 4 °C, pH 7.9, aqueous buffer, thermodynamic from solid, initial pH 10.97, final pH 7.90): 30.9 mg/mL | solubility at 3 h ([2]; aqueous solution, 4 °C, pH 8.17, aqueous buffer, thermodynamic from solid, initial pH 8.17, final pH 8.17): 43.2 mg/mL | solubility at 3 h ([2]; aqueous solution, pH 0.37, simulated gastric fluid, thermodynamic from solid, ambient temperature, initial pH 0.26, final pH 0.37): 15.7 mg/mL | solubility at 6 days ([2]; aqueous solution, pH 0.504, simulated gastric fluid, thermodynamic from solid, Solution 1 after 6 days in the laboratory, precipitate filtered, pH 0.504 / 0.50): 13.9 mg/mL | solubility at 3 h ([2]; aqueous solution, pH 1.06, simulated gastric fluid, thermodynamic from solid, ambient temperature, initial pH 1.00, final pH 1.06): 40.3 mg/mL | solubility at 3 h ([2]; aqueous solution, pH 3, aqueous buffer, thermodynamic from solid, ambient temperature, initial pH 2.51, final pH 3.00): 44.9 mg/mL | solubility at 3 h ([2]; aqueous solution, pH 6.73, aqueous buffer, thermodynamic from solid, ambient temperature, initial pH 4.99, final pH 6.73): 44.3 mg/mL | solubility at 3 h ([2]; aqueous solution, pH 7.3, aqueous buffer, thermodynamic from solid, ambient temperature, initial pH 7.34, final pH 7.30): 44.5 mg/mL | solubility at 3 h ([2]; aqueous solution, pH 7.4, aqueous buffer, thermodynamic from solid, ambient temperature, initial pH 8.17, final pH 7.40): 44.5 mg/mL | solubility at 3 h ([2]; aqueous solution, pH 7.4, aqueous buffer, thermodynamic from solid, ambient temperature, initial pH 9.04, final pH 7.4): 35.4 mg/mL | solubility at 3 h ([2]; aqueous solution, pH 7.6, aqueous buffer, thermodynamic from solid, ambient temperature, initial pH 10.97, final pH 7.6): 34.6 mg/mL | solubility at 3 h ([2]; aqueous solution, pH 7.9, aqueous buffer, thermodynamic from solid, ambient temperature, initial pH 7.69, final pH 7.90): 42.1 mg/mL | behaviour of solution on standing ([2]; pH>7 and pH<3, ambient temperature): precipitation of the salt was observed on standing | solubility at 3 h ([3]; 4 °C, acetate buffer 200 mM at 4° C., initial pH 4.6, final pH 4.6, read-out: [mesylate salt] solubility): 37.2 mg/mL | solubility at 3 h ([3]; acetate buffer 200 mM at ambient temperature, initial pH 4.6, final pH 4.5, read-out: [Mesylate salt] solubility): 30.7 mg/mL | solubility at 3 h ([3]; acetic acid/sodium acetate buffer, solution pH approximately 4.6, read-out: solubility): ~35 mg/mL | solubility at 3 h ([3]; in acetate buffer, read-out: solubility of the mesylate salt): 32 to 37 mg/mL | precipitation in freeze-thaw stability tests ([4]; acetate buffered salt solution): did not result in precipitation | stability of solution pH and salt in freeze-thaw tests ([4]; acetate buffered salt solution): stable | stability of solution pH and salt ([4]; acetate buffered solution, autoclaving at 121° C. for 15 minutes, then 40° C., 55° C. or 75° C. for 10-12 days): stable | overall stability ([5]; 40° C., 75% relative humidity, six months): good stability | (a) Description [5, 8]: Off-white solid | (b) Identity by FTIR [5, 8]: Conforms to | (c) Melting point by DSC, melting endotherm [5, 8]: 367.7 °C | (d) Water content [5, 8]: <0.1% w/w | (e) Impurities (by HPLC) Total impurities [5, 8]: 0.52% area | Chemical purity [5, 8]: 99.48% area | Impurity RRT 0.812 (by HPLC) [5, 8]: 0.07% area | Impurity RRT 1.196 (by HPLC) [5, 8]: 0.01% area | Impurity RRT 1.226 (by HPLC) [5, 8]: 0.02% area | Impurity RRT 1.303 (by HPLC) [5, 8]: 0.02% area | Impurity RRT 1.318 (by HPLC) [5, 8]: 0.03% area | Impurity RRT 1.484 (by HPLC) [5, 8]: 0.15% area | Impurity RRT 1.526 (by HPLC) [5, 8]: 0.03% area | Impurity RRT 1.680 (by HPLC) [5, 8]: 0.19% area | (a) Description [5, 9]: Off-white solid | (b) Identity by FTIR [5, 9]: Conforms to | (c) Melting point by DSC, melting endotherm [5, 9]: 368.3 °C | (d) Water content [5, 9]: <0.1% w/w | (e) Impurities (by HPLC) Total impurities [5, 9]: 0.49% area | Chemical purity [5, 9]: 99.51% area | Impurity RRT 0.812 (by HPLC) [5, 9]: 0.07% area | Impurity RRT 1.196 (by HPLC) [5, 9]: 0.02% area | Impurity RRT 1.303 (by HPLC) [5, 9]: 0.06% area | Impurity RRT 1.484 (by HPLC) [5, 9]: 0.17% area | Impurity RRT 1.680 (by HPLC) [5, 9]: 0.17% area | (a) Description [5, 10]: Off-white solid | (b) Identity by FTIR [5, 10]: Conforms to | (c) Melting point by DSC, melting endotherm [5, 10]: 375.5 °C | (d) Water content [5, 10]: <0.1% w/w | (e) Impurities (by HPLC) Total impurities [5, 10]: 0.50% area | Chemical purity [5, 10]: 99.50% area | Impurity RRT 0.812 (by HPLC) [5, 10]: 0.06% area | Impurity RRT 1.226 (by HPLC) [5, 10]: 0.02% area | Impurity RRT 1.318 (by HPLC) [5, 10]: 0.04% area | Impurity RRT 1.484 (by HPLC) [5, 10]: 0.17% area | Impurity RRT 1.526 (by HPLC) [5, 10]: 0.04% area | Impurity RRT 1.680 (by HPLC) [5, 10]: 0.17% area | (a) Description [5, 11]: Off-white solid | (b) Identity by FTIR [5, 11]: Conforms to | (c) Melting point by DSC, melting endotherm [5, 11]: 369.1 °C | (d) Water content [5, 11]: <0.1% w/w | (e) Impurities (by HPLC) Total impurities [5, 11]: 0.50% area | Chemical purity [5, 11]: 99.50% area | Impurity RRT 0.812 (by HPLC) [5, 11]: 0.06% area | Impurity RRT 1.226 (by HPLC) [5, 11]: 0.02% area | Impurity RRT 1.318 (by HPLC) [5, 11]: 0.04% area | Impurity RRT 1.484 (by HPLC) [5, 11]: 0.17% area | Impurity RRT 1.526 (by HPLC) [5, 11]: 0.03% area | Impurity RRT 1.680 (by HPLC) [5, 11]: 0.17% area | Impurity RRT 1.682 (by HPLC) [5, 11]: 0.01% area | water uptake (GVS) ([6]; not exposed to relative humidities of more than 80%): less than 2.6 % w/w | water picked up (GVS isotherm) ([6]; over the range 0% relative humidity to 90% relative humidity): approximately 4 % in weight | changes in XRPD profile ([7]; 8 and 18 days): No changes were observed | degradation by HPLC analysis ([7]; up to 18 days): no degradation | IC50 (HCT-1 16 cells): 110 nM
